Data as given in US4698327A, “Novel glycopeptide derivatives” (priority 1986, dated 1987).
≈ marks a conversion by molar mass, not a printed value.

Tests used:
[1] = system: Streptococcus pneumoniae; conditions: Streptococcus pneumoniae infection in mice; two doses, administered subcutaneously
[2] = system: Klebsiella pneumoniae X68; assay: MIC, standard agar-dilution assay; format: cell-based
[3] = system: Staphylococcus aureus V41; assay: MIC, standard agar-dilution assay; format: cell-based
[4] = system: Staphylococcus epidermidis 222; assay: MIC, standard agar-dilution assay; format: cell-based
[5] = system: Staphylococcus aureus X400; assay: MIC, standard agar-dilution assay; format: cell-based
[6] = system: Streptococcus pyogenes C203; assay: MIC, standard agar-dilution assay; format: cell-based
[7] = system: Klebsiella pneumoniae X26; assay: MIC, standard agar-dilution assay; format: cell-based
[8] = system: Streptococcus faecium ATCC 9790; assay: MIC, standard agar-dilution assay; format: cell-based
[9] = system: Streptococcus sp. group D 2041; assay: MIC, standard agar-dilution assay; format: cell-based
[10] = system: Escherichia coli EC14; assay: MIC, standard agar-dilution assay; format: cell-based
[11] = system: Staphylococcus aureus; conditions: Staphylococcus aureus infection in mice; two doses, administered subcutaneously
[12] = system: Staphylococcus aureus NRRL B313; conditions: agar dilution
[13] = system: Streptococcus pyogenes; conditions: Streptococcus pyogenes infection in mice; two doses, administered subcutaneously
[14] = system: Staphylococcus aureus S13E; format: cell-based; conditions: agar dilution
[15] = system: Klebsiella pneumoniae KAE; assay: MIC, standard agar-dilution assay; format: cell-based
[16] = system: Haemophilus influenzae 76; assay: MIC, standard agar-dilution assay; format: cell-based
[17] = system: Haemophilus influenzae C.L.; assay: MIC, standard agar-dilution assay; format: cell-based
[18] = system: Streptococcus pneumoniae Park 1; format: cell-based; conditions: agar dilution
[19] = system: Escherichia coli TEM; assay: MIC, standard agar-dilution assay; format: cell-based
[20] = system: Escherichia coli N10; assay: MIC, standard agar-dilution assay; format: cell-based
[21] = system: Staphylococcus epidermidis EPI1; format: cell-based; conditions: agar dilution

| Structure (SMILES) | ED50 [1] [mg/kg/2] | MIC [2] [µg/mL] | MIC [3] [µg/mL] | MIC [4] [µg/mL] | MIC [5] [µg/mL] | MIC [6] [µg/mL] | MIC [7] [µg/mL] | MIC [8] [µg/mL] | MIC [9] [µg/mL] | MIC [10] [µg/mL] | ED50 [11] [mg/kg/2] | MIC [12] [µg/mL] | ED50 [13] [mg/kg/2] | MIC [14] [µg/mL] | MIC [15] [µg/mL] | MIC [16] [µg/mL] | MIC [17] [µg/mL] | MIC [18] [µg/mL] | MIC [19] [µg/mL] | MIC [20] [µg/mL] | other results |
| --- | --- | --- | --- | --- | --- | --- | --- | --- | --- | --- | --- | --- | --- | --- | --- | --- | --- | --- | --- | --- | --- |
| CCCCCCCCc1ccc(CNC2(C)CC(OC3C(Oc4c5cc6cc4Oc4ccc(cc4Cl)C(O)C4NC(=O)C(NC(=O)C6NC(=O)C(CC(N)=O)NC(=O)C(NC(=O)C(CC(C)C)NC)C(O)c6ccc(c(Cl)c6)O5)c5ccc(O)c(c5)-c5c(O)cc(O)cc5C(C(=O)O)NC4=O)OC(CO)C(O)C3O)OC(C)C2O)cc1 (stereo not drawn) [Example 93, N^van --( -p-octylbenzyl)vancomycin] | 0.23 | > 128 | 1 (≈ 0.605 µM) | 1 (≈ 0.605 µM) | 1 (≈ 0.605 µM) | 0.25 (≈ 0.151 µM) | > 128 | 0.25 (≈ 0.151 µM) | 0.5 (≈ 0.303 µM) | > 128 | 0.19 | 0.5 (≈ 0.303 µM) | 0.62 | 0.5 (≈ 0.303 µM) | > 128 | > 128 | > 128 | 0.25 (≈ 0.151 µM) | > 128 | > 128 | MIC [21]: 2 µg/mL (≈ 1.21 µM) |
| CCCCc1ccc(CNC2(C)CC(OC3C(Oc4c5cc6cc4Oc4ccc(cc4Cl)C(O)C4NC(=O)C(NC(=O)C6NC(=O)C(CC(N)=O)NC(=O)C(NC(=O)C(CC(C)C)NC)C(O)c6ccc(c(Cl)c6)O5)c5ccc(O)c(c5)-c5c(O)cc(O)cc5C(C(=O)O)NC4=O)OC(CO)C(O)C3O)OC(C)C2O)cc1 (stereo not drawn) [Example 81, N^van --( -p-butylbenzyl)vancomycin] | 1.26 | > 128 | 0.125 (≈ 0.0783 µM) | 0.125 (≈ 0.0783 µM) | 0.125 (≈ 0.0783 µM) | 0.06 (≈ 0.0376 µM) | > 128 | 0.06 (≈ 0.0376 µM) | 0.25 (≈ 0.157 µM) | > 128 | 0.74 | 0.06 (≈ 0.0376 µM) | 1.16 | 0.06 (≈ 0.0376 µM) | > 128 | 32 (≈ 20.1 µM) | 32 (≈ 20.1 µM) | 0.06 (≈ 0.0376 µM) | > 128 | > 128 | MIC [21]: 0.25 µg/mL (≈ 0.157 µM) |
| CCCCCCCCN(C)C(CC(C)C)C(=O)NC1C(=O)NC(CC(N)=O)C(=O)NC2C(=O)NC3C(=O)NC(C(=O)NC(C(=O)O)c4cc(O)cc(O)c4-c4cc3ccc4O)C(O)c3ccc(c(Cl)c3)Oc3cc2cc(c3OC2OC(CO)C(O)C(O)C2OC2CC(C)(N)C(O)C(C)O2)Oc2ccc(cc2Cl)C1O (stereo not drawn) [Compound 8, N^leu --(n-octyl)vancomycin] | 3.1 | > 128 | 0.5 (≈ 0.32 µM) | 1 (≈ 0.64 µM) | 1 (≈ 0.64 µM) | 0.5 (≈ 0.32 µM) | > 128 | 1 (≈ 0.64 µM) | 2 (≈ 1.28 µM) | > 128 | > 5 | 0.5 (≈ 0.32 µM) | 3.7 | 1 (≈ 0.64 µM) | > 128 | 128 (≈ 82 µM) | 128 (≈ 82 µM) | 1 (≈ 0.64 µM) | > 128 | > 128 | MIC [21]: 2 µg/mL (≈ 1.28 µM) |
| CCCCOc1ccc(CNC2(C)CC(OC3C(Oc4c5cc6cc4Oc4ccc(cc4Cl)C(O)C4NC(=O)C(NC(=O)C6NC(=O)C(CC(N)=O)NC(=O)C(NC(=O)C(CC(C)C)NC)C(O)c6ccc(c(Cl)c6)O5)c5ccc(O)c(c5)-c5c(O)cc(O)cc5C(C(=O)O)NC4=O)OC(CO)C(O)C3O)OC(C)C2O)cc1 (stereo not drawn) [Example 84, N^van --( -p-butoxybenzyl)vancomycin] | 1.14 | > 128 | 0.125 (≈ 0.0776 µM) | 0.25 (≈ 0.155 µM) | 0.125 (≈ 0.0776 µM) | 0.06 (≈ 0.0372 µM) | > 128 | 0.125 (≈ 0.0776 µM) | 0.25 (≈ 0.155 µM) | > 128 | 0.65 | 0.125 (≈ 0.0776 µM) | 0.69 | 0.125 (≈ 0.0776 µM) | > 128 | 64 (≈ 39.7 µM) | 32 (≈ 19.9 µM) | 0.03 (≈ 0.0186 µM) | > 128 | > 128 | MIC [21]: 0.25 µg/mL (≈ 0.155 µM) |
| CCCCCCCCOc1ccc(CNC2(C)CC(OC3C(Oc4c5cc6cc4Oc4ccc(cc4Cl)C(O)C4NC(=O)C(NC(=O)C6NC(=O)C(CC(N)=O)NC(=O)C(NC(=O)C(CC(C)C)NC)C(O)c6ccc(c(Cl)c6)O5)c5ccc(O)c(c5)-c5c(O)cc(O)cc5C(C(=O)O)NC4=O)OC(CO)C(O)C3O)OC(C)C2O)cc1 (stereo not drawn) [Example 94, N^van --( -p-octyloxybenzyl)vancomycin] | 0.2 | > 128 | 0.5 (≈ 0.3 µM) | 0.5 (≈ 0.3 µM) | 0.5 (≈ 0.3 µM) | 0.25 (≈ 0.15 µM) | > 128 | 0.25 (≈ 0.15 µM) | 0.25 (≈ 0.15 µM) | > 128 | > 0.12 | 0.25 (≈ 0.15 µM) | 0.66 | 0.5 (≈ 0.3 µM) | > 128 | > 128 | > 128 | 0.25 (≈ 0.15 µM) | > 128 | > 128 | MIC [21]: 1 µg/mL (≈ 0.6 µM) |
| CNC(CC(C)C)C(=O)NC1C(=O)NC(CC(N)=O)C(=O)NC2C(=O)NC3C(=O)NC(C(=O)NC(C(=O)O)c4cc(O)cc(O)c4-c4cc3ccc4O)C(O)c3ccc(c(Cl)c3)Oc3cc2cc(c3OC2OC(CO)C(O)C(O)C2OC2CC(C)(NCc3ccc(O)cc3)C(O)C(C)O2)Oc2ccc(cc2Cl)C1O (stereo not drawn) [Example 105, N^van --( -p-hydroxybenzyl)vancomycin] | 1.25 | > 128 | 0.5 (≈ 0.321 µM) | 0.5 (≈ 0.321 µM) | 0.5 (≈ 0.321 µM) | 0.5 (≈ 0.321 µM) | > 128 | 0.5 (≈ 0.321 µM) | 2 (≈ 1.29 µM) | > 128 | 0.98 | 0.5 (≈ 0.321 µM) | 1.18 | 0.5 (≈ 0.321 µM) | > 128 | 64 (≈ 41.1 µM) | 64 (≈ 41.1 µM) | 0.06 (≈ 0.0386 µM) | > 128 | > 128 | MIC [21]: 1 µg/mL (≈ 0.643 µM) |
| CCN(CC)c1ccc(CNC2(C)CC(OC3C(Oc4c5cc6cc4Oc4ccc(cc4Cl)C(O)C4NC(=O)C(NC(=O)C6NC(=O)C(CC(N)=O)NC(=O)C(NC(=O)C(CC(C)C)NC)C(O)c6ccc(c(Cl)c6)O5)c5ccc(O)c(c5)-c5c(O)cc(O)cc5C(C(=O)O)NC4=O)OC(CO)C(O)C3O)OC(C)C2O)cc1 (stereo not drawn) [Example 77, N^van ( -p-diethylaminobenzyl)vancomycin] | 1.2 | > 128 | 0.5 (≈ 0.31 µM) | 0.5 (≈ 0.31 µM) | 0.5 (≈ 0.31 µM) | 0.25 (≈ 0.155 µM) | > 128 | 0.5 (≈ 0.31 µM) | 1 (≈ 0.621 µM) | > 128 | 1.1 | 0.25 (≈ 0.155 µM) | 0.8 | 0.5 (≈ 0.31 µM) | > 128 | 128 (≈ 79.5 µM) | 128 (≈ 79.5 µM) | 0.125 (≈ 0.0776 µM) | > 128 | > 128 | MIC [21]: 1 µg/mL (≈ 0.621 µM) |
| CCCCCCCCCNC1(C)CC(OC2C(Oc3c4cc5cc3Oc3ccc(cc3Cl)C(O)C3NC(=O)C(NC(=O)C5NC(=O)C(CC(N)=O)NC(=O)C(NC(=O)C(CC(C)C)NC)C(O)c5ccc(c(Cl)c5)O4)c4ccc(O)c(c4)-c4c(O)cc(O)cc4C(C(=O)O)NC3=O)OC(CO)C(O)C2O)OC(C)C1O (stereo not drawn) [Compound 5, N^van --(n-nonyl)vancomycin] | 0.81 | > 128 | 0.25 (≈ 0.159 µM) | 0.25 (≈ 0.159 µM) | 0.25 (≈ 0.159 µM) | 0.125 (≈ 0.0793 µM) | > 128 | 0.25 (≈ 0.159 µM) | 0.5 (≈ 0.317 µM) | > 128 | 2.9 | 0.25 (≈ 0.159 µM) | 0.56 | 0.25 (≈ 0.159 µM) | > 128 | 64 (≈ 40.6 µM) | 64 (≈ 40.6 µM) | 0.25 (≈ 0.159 µM) | > 128 | > 128 | MIC [21]: 0.5 µg/mL (≈ 0.317 µM) |
